We go through 15 compounds from patent US20240246968A1, “SMALL MOLECULE INHIBITORS OF KRAS G12C MUTANT” (Merck Sharp & Dohme LLC, priority 2021, published 2024).

Each structure is given as a SMILES string.

Assay [1] concerns the target biotinylated KRAS G12C protein (GMP-PNP loaded) and GST-tagged Ras binding domain of c-RAF (Homo sapiens, UniProt P01116, C118S/C51S/C80L/G12C). The experiment in a line: RAS:RAF-RBD binding assay (TR-FRET). The class given is biochemical. The conditions noted are these: 30-minute incubation with KRAS G12C, then RAF-RBD 60 minute. On the technique in general: TR-FRET usually uses a lanthanide donor and a delayed reading to cut background.

Assay [2] deals with cancer cells with the KRAS G12C mutation. The conditions noted are these: cited from earlier work.
Assay [3] has as its system tumor-bearing mice expressing the KRAS G12C mutation. The conditions noted are these: cited from earlier work.

Sequence of biotinylated KRAS G12C protein (GMP-PNP loaded) and GST-tagged Ras binding domain of c-RAF (P01116 with tags, fused parts or gaps isoform P01116-2 G12C/C51S/C80L/C118S): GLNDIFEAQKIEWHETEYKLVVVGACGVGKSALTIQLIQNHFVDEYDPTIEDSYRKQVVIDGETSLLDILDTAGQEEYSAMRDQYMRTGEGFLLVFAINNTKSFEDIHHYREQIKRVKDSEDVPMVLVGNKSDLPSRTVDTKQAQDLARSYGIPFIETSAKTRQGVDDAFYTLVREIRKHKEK

As a reminder, the IC50 is the point on the concentration scale where inhibition reaches its midpoint. As for `CO[C@H]1CC[C@H](NC/C=C/C(=O)Nc2c(F)cc(C(=O)c3ccc4c(-c5c(C(F)(F)F)cc6c(cnn6C)c5Cl)cccn34)cc2F)CC1` (single isomer, unassigned) [Example 118, (E)-N-(4-(8-(4-chloro-1-methyl-6-(trifluoromethyl)-1H-indazol-5-yl)indolizine-3-carbonyl)-2,6-difluorophenyl)-4-(((1r,4r)-4-methoxycyclohexyl)amino)but-2-enamide], the IC50 in assay [1] is 461 nM.

In assay [1], `Cc1c2cc(C(F)(F)F)c(-c3cccn4c(C(=O)c5cc(F)c(NC(=O)/C=C/CNC6(C)COC6)c(F)c5)ccc34)c(O)c2nn1C` (single isomer, unassigned) [Example 123, (E)-N-(4-((2,6-difluoro-4-(8-(7-hydroxy-2,3-dimethyl-5-(trifluoromethyl)-2H-indazol-6-yl)indolizine-3-carbonyl)phenyl)amino)-4-oxobut-2-en-1-yl)-3-methyloxetan-3-aminium 2,2,2-trifluoroacetate] had an IC50 of 78.4 nM.

Compound `Cc1nc2c(Cl)c(-c3cccn4c(C(=O)c5cc(F)c(NC(=O)/C=C/CNC6(C)CCOC6)c(F)c5)ccc34)c(C(F)(F)F)cc2n1C` (single isomer, unassigned) [Example 131a, (E)-N-(4-(8-(4-chloro-1,2-dimethyl-6-(trifluoromethyl)-1H-benzo[d]imidazol-5-yl)indolizine-3-carbonyl)-2,6-difluorophenyl)-4-((3-methyltetrahydrofuran-3-yl)amino)but-2-enamide] showed an IC50 in assay [1] of 13.4 nM.

In turn, `Cc1nc2c(Cl)c(-c3cccn4c(C(=O)c5cc(F)c(NC(=O)/C=C/CNC6(C)CCOC6)c(F)c5)ccc34)c(C(F)(F)F)cc2n1C` (single isomer, unassigned) [Example 131b, (E)-N-(4-(8-(4-chloro-1,2-dimethyl-6-(trifluoromethyl)-1H-benzo[d]imidazol-5-yl)indolizine-3-carbonyl)-2,6-difluorophenyl)-4-((3-methyltetrahydrofuran-3-yl)amino)but-2-enamide] had a half-maximal inhibitory concentration (IC50) in assay [1] of 12.4 nM.

Take `C=CC(=O)N1CC(N2CCN(C(=O)CNc3cc(C4(C)CC4)c(Cl)cc3O)CC2)C1` [ARS-853]: the “inhibition of KRAS activity and antiproliferative effect under EGFR activation” value in assay [2] (KRAS G12C mutated cell line, EGFR activation) is on record as “attenuated”. Moreover, the induction of apoptosis result in assay [2] (cancer cells with the KRAS G12C mutation) is listed as “inducing apoptosis”.

On to `C=CC(=O)N1CCN(c2ncnc3c(F)c(-c4c(O)cccc4F)c(Cl)cc23)CC1` [ARS-1620], for which the antitumor action result in assay [3] is on record as “exerts antitumor action”.

With `CO[C@H]1CC[C@H](NC/C=C/C(=O)Nc2c(F)cc(C(=O)c3ccc4c(-c5cc6ncccc6cc5C(F)(F)F)cccn34)cc2F)CC1` [Example 120, mono(7-(3-(3,5-difluoro-4-((E)-4-(((1r,4r)-4-methoxycyclohexyl)ammonio)but-2-enamido)benzoyl)indolizin-8-yl)-6-(trifluoromethyl)quinolin-1-ium) mono(2,2,2-trifluoroacetate)], the concentration for half-maximal inhibition (IC50) in assay [1] worked out at 482 nM.

`CO[C@H]1CC[C@H](NC/C=C/C(=O)Nc2c(F)cc(C(=O)c3ccc4c(-c5cc6c(cc5C(F)(F)F)CCN(C)C6=O)cccn34)cc2F)CC1` [Example 121, (1r,4r)-N-((E)-4-((2,6-difluoro-4-(8-(2-methyl-1-oxo-6-(trifluoromethyl)-1,2,3,4-tetrahydroisoquinolin-7-yl)indolizine-3-carbonyl)phenyl)amino)-4-oxobut-2-en-1-yl)-4-methoxycyclohexan-1-aminium 2,2,2-trifluoroacetate]: the IC50 in assay [1] turned out to be 168 nM.

Regarding `CO[C@H]1CC[C@H](NC/C=C/C(=O)Nc2c(F)cc(C(=O)c3ccc4c(-c5cc6c(=O)n(C)ccc6cc5C(F)(F)F)cccn34)cc2F)CC1` [Example 125, (1r,4r)-N-((E)-4-((2,6-difluoro-4-(8-(2-methyl-1-oxo-6-(trifluoromethyl)-1,2-dihydroisoquinolin-7-yl)indolizine-3-carbonyl)phenyl)amino)-4-oxobut-2-en-1-yl)-4-methoxycyclohexan-1-aminium 2,2,2-trifluoroacetate], the IC50 in assay [1] was 398 nM.

As for `CO[C@H]1CC[C@H](NC/C=C/C(=O)Nc2c(F)cc(C(=O)n3ccc4c(-c5c(C(F)(F)F)cc6c(nc(C)n6C)c5Cl)cccc43)cc2F)CC1` [Example 126, (E)-N-(4-(4-(4-chloro-1,2-dimethyl-6-(trifluoromethyl)-1H-benzo[d]imidazol-5-yl)-1H-indole-1-carbonyl)-2,6-difluorophenyl)-4-(((1r,4r)-4-methoxycyclohexyl)amino)but-2-enamide], the half-inhibitory concentration (IC50) in assay [1] came out at 28.3 nM.

In assay [1], `Cc1nc2c(Cl)c(-c3cccn4c(C(=O)c5cc(F)c(NC(=O)/C=C/CNC6CCC6(C)C)c(F)c5)ccc34)c(C(F)(F)F)cc2n1C` (stereo not shown) [Example 127, mono((E)-4-chloro-5-(3-(4-(4-((2,2-dimethylcyclobutyl)ammonio)but-2-enamido)-3,5-difluorobenzoyl)indolizin-8-yl)-1,2-dimethyl-6-(trifluoromethyl)-1H-benzo[d]imidazol-3-ium) mono(2,2,2-trifluoroacetate)] showed a half-maximal inhibitory concentration (IC50) of 403 nM.

In assay [1], `Cc1nc2c(Cl)c(-c3cccn4c(C(=O)c5cc(F)c(NC(=O)/C=C/CN(C)C)c(F)c5)ccc34)c(C(F)(F)F)cc2n1C` [Example 128, mono((E)-4-chloro-5-(3-(4-(4-(dimethylammonio)but-2-enamido)-3,5-difluorobenzoyl)indolizin-8-yl)-1,2-dimethyl-6-(trifluoromethyl)-1H-benzo[d]imidazol-3-ium) mono(2,2,2-trifluoroacetate)] came in with a 50% inhibitory concentration (IC50) of 159 nM.

`Cc1nc2c(Cl)c(-c3cccn4c(C(=O)c5cc(F)c(NC(=O)/C=C/CN6CCCC6C(C)(C)O)c(F)c5)ccc34)c(C(F)(F)F)cc2n1C` (stereo not shown) [Example 129, mono((E)-4-chloro-5-(3-(3,5-difluoro-4-(4-(2-(2-hydroxypropan-2-yl)pyrrolidin-1-ium-1-yl)but-2-enamido)benzoyl)indolizin-8-yl)-1,2-dimethyl-6-(trifluoromethyl)-1H-benzo[d]imidazol-3-ium) mono(2,2,2-trifluoroacetate)] gave an IC50 in assay [1] of 101 nM.

`Cc1nc2c(Cl)c(-c3cccn4c(C(=O)c5cc(F)c(NC(=O)/C=C/CN6CCC[C@H]6CO)c(F)c5)ccc34)c(C(F)(F)F)cc2n1C` [Example 130, mono(4-chloro-5-(3-(3,5-difluoro-4-((E)-4-((2S)-2-(hydroxymethyl)pyrrolidin-1-ium-1-yl)but-2-enamido)benzoyl)indolizin-8-yl)-1,2-dimethyl-6-(trifluoromethyl)-1H-benzo[d]imidazol-3-ium) mono(2,2,2-trifluoroacetate)] gave an IC50 in assay [1] of 95.9 nM.

Take `Cc1c(-c2cccn3c(C(=O)c4cc(F)c(NC(=O)/C=C/CN[C@H]5CCOC5)c(F)c4)ccc23)ccc2c1CCC2O` (stereo partly drawn) [Example 132, (3S)—N-((E)-4-((2,6-difluoro-4-(8-(1-hydroxy-4-methyl-2,3-dihydro-1H-inden-5-yl)indolizine-3-carbonyl)phenyl)amino)-4-oxobut-2-en-1-yl)tetrahydrofuran-3-aminium 2,2,2-trifluoroacetate]: the 50% inhibitory concentration (IC50) in assay [1] worked out at 300 nM.
